Experiments:
[1] = biological target: T1, 7620 (Trypanosoma brucei, UniProt Q57V83); type: cell-based; settings: pH 7.0, 30 °C, excess competitor
T1 construct: gene Tb08.30P3.140; full-length ORF, untagged, in pDR197; expressed in S. cerevisiae 22574d

[2] = substrate: O=C(O)[C@@H]1CCCN1; test: cells, lysate or membranes; settings: pH 7.0, 30 °C, 100 mM glucose, labelled compound

Row | Molecule | relative uptake rate (%) [1] | Km [2]
1 | C[C@H](N)C(=O)O [alanine] | proline being the best substrate, followed by alanine and cysteine | –
2 | N[C@@H](CS)C(=O)O [cysteine] | proline being the best substrate, followed by alanine and cysteine | –
3 | 7620 (Trypanosoma brucei brucei TREU927) (protein) MTSINAQPPNSATYPQDDHGSAEVVNLNAEVERPQPEEQKDGGGCFARVSLFMATIIPPGGIAASAFNIGSTTVGAGIFGLPAAANSSGLVMAMIYLIIITAMTIFSIYALGVAAERTNIRTYEGVARALLGPWGAYYTAATRAFFSFSACVAYVISVGDILSATLKGTNAPDFLKQKSGNRLLTSLMWLCFMLPLVIPRHIDSLRHVSTIAFILMIYMVLVVVVHSCMNGLPENIKNVSVGKDDNAEIILFNSGNRAIEGLGVFIFSYLFQITAYEVYMDMTNRSVGKFVLVVTIAMGMCLPMYALTAFFGYMDFGRNVTGSVLLQYDPVNYPAVMVGFVGVLVMLFVSYALLGLACRNALYDVIGWDFREVAFWKHCIAVVTLSIVMLLCGLFIPKITTVLGFAGSFCGGSLGFILPALFFMYSGGFTWQKVGPFYYISTYVLLITGVIAAVFGTGATIWAVTVG | – | 600 µM

From article PMC8094907 (The Journal of Biological Chemistry, 2021)
